Data reported in ChEMBL document CHEMBL1146845, “Structural determinants for N1/N7 cyclization of nicotinamide hypoxanthine 5'-dinucleotide (NHD+) derivatives by ADP-ribosyl cyclase from aplysia californica: Ca2+-mobilizing activity of 8-substituted cyclic inosine 5'-diphosphoribose analogues in T-lymphocytes” (J Med Chem, 2006).
Calls of active or inactive are those of the source. The calls are words filed in the database; no cut-off is given here.

Test system: Jurkat
Test: Induction of calcium ion mobilization in intact Jurkat cells
Type: functional, cell-based
Conditions: Homo sapiens

`O=c1c2nc(I)n3c2ncn1[C@@H]1O[C@H](COP(=O)(O)OP(=O)(O)OC[C@H]2O[C@@H]3[C@H](O)[C@@H]2O)[C@@H](O)[C@H]1O` was tested, and the Activity was “Active”.

`O=c1c2nc(-c3ccccc3)n3c2ncn1[C@@H]1O[C@H](COP(=O)(O)OP(=O)(O)OC[C@H]2O[C@@H]3[C@H](O)[C@@H]2O)[C@@H](O)[C@H]1O` was tested, and the Activity was “Active”.
